Structures are written as SMILES.

Test [1] has as its target T1, NF-κB p65 (Homo sapiens, UniProt Q04206).
T1 construct: purchased Active Motif
Description: TransAM NF-κB Family DNA Binding ELISA, p65. The conditions noted are these: binding to NF-κB consensus oligonucleotide; read-out: p65 binding IC50. How it is done: (§1) The binding activity of NF-κB heterodimer or homodimer subunits from activated nuclear extracts or purified recombinant NF-κB proteins exposed to the drug compounds was evaluated using the TransAM NF-κB Family binding ELISA (Active Motif). Approximately 3-5 μg of nuclear extracts from TNFα activated Hela or Raji cells (Active Motif) or 20 ng of purified recombinant proteins (p65 and p50 from Active Motif, p52 from Santa Cruz) were incubated for 1 hour at room temperature with 20 μL drug compounds diluted in Complete Lysis buffer without DTT. Treated samples were then transferred to 30 μL Complete Binding Buffer (with DTT) in microplate wells pre-coated with the NF-κB consensus oligonucleotide. […] The plate was incubated for 1 hour at room temperature with gentle shaking and then washed 3 times with 200 μL 1× Wash Buffer. NF-κB p65, p50, p52, RelB, or c-Rel subunits bound to the plate were detected with 100 μL of the primary antibody (diluted 1:1000 in 1× Antibody Buffer) specific for that subunit. The plate was incubated for 1 hour at room temperature and then washed 3 times with 200 μL 1× Wash Buffer. Next, 100 μL of a HRP conjugated goat anti-rabbit antibody (diluted 1:1,000 in 1× Antibody Buffer) was added to each well. The plate was incubated for 1 hour at room temperature and then washed 4 times with 200 μL 1× Wash Buffer. 100 μL of room temperature Developing Solution was added to each well. The reaction was allowed to develop for 2-10 minutes until a medium dark blue color developed (depending on the subunit activity in the lot of extract or lot of recombinant protein used) and then the reaction was stopped with 100 μL Stop Solution yielding a yellow color. Absorbance was recorded using a Becton-Dickinson DTX 880 Multimode Detector at 450 nm with a reference wavelength subtracted at 620 nm.

The subject of test [2] is IL-6. Kind of test: Inhibition of IL-6 release in LPS-stimulated RAW 264.7 cells. It counts as cell-based. The conditions noted are these: Mus musculus, RAW264.7; pretreated 2 hours, 1 μg/mL LPS 20-24 hours. On the procedure: RAW 264.7 cells were seeded at 4×10^4 cells per well in complete growth medium in 96 well white TC plates with clear bottoms one day prior to the assay. The next day the cells were washed once and 100 μL fresh growth media was added. Cells were pretreated with 0.5 μL from a 6 point 200× dilution series of the test compounds in DMSO for 2 hours. Following pretreatment with the drugs, the inflammatory response was induced by adding 5 μL of a 20 μg/mL solution of LPS (Sigma). The cells were incubated in the presence of the drugs and 1 μg/mL LPS for another 20-24 hours. Typically after treatment the total DMSO was […] of the culture volume and the final concentrations of the compounds were approximately: 40, 20, 10, 1, 0.2 and 0 μM depending on the MW of each compound. Modified dilution series were prepared as needed to get adequate dose response curves without changing the % DMSO. Samples were run in duplicate or triplicate and included DMSO treated control wells with and without LPS stimulation. Drugs with a known activity such as Parthenolide or DHMEQ were run as experimental controls. After 20-24 hours LPS activation, the media supernatant was collected from the cells and replaced with fresh media. The supernatant samples were cleared by centrifugation at 1,000×g for 5 minutes, transferred to fresh storage plates, and stored frozen at −30° C.
After determining the appropriate supernatant dilutions experimentally, mIL-6 levels in the supernatants were quantified using Quantikine™ mouse IL-6 Immunoassay (R&D Systems) according to the manufacturer's protocol. Approximately 50 μL of the supernatants diluted in Calibrator Diluent were added to 50 μL of Assay Diluent in microplate wells pre-coated with an anti-mouse IL-6 capture antibody. Controls included a calibrated positive IL-6 control sample, non-specific binding (NSB) wells containing Calibrator Diluent but no IL-6, and a recombinant mouse IL-6 standard dilution series (10-1000 pg/mL). The plates were incubated at room temperature for 2 hours with shaking and then washed 5 times with 400 μL 1× Wash Buffer. Approximately 100 μL of an HRP-conjugated anti-mouse IL-6 antibody was added to each well to detect IL-6 captured on the plate. The plates were incubated at room temperature for 2 hours and then washed 5 times with 400 μl 1× Wash Buffer. Equal volumes of Color Reagents A and B were mixed and 100 μL of this HRP Substrate Solution was added to each well on the plate. The blue color was allowed to develop for 30 minutes and then the reaction was stopped using 100 μL of Stop Solution yielding a yellow color. Absorbance at 450 nm with a reference wavelength subtracted at 595 nm was recorded using a Becton-Dickinson DTX 880 Multimode Detector.
The concentration of mIL-6 in the unknown samples was determined from a curve-fit of the mIL-6 standard absorbance data and multiplying by the dilution factor. The maximum activity achieved in the absence of the inhibitor (DMSO+LPS treated wells) was arbitrarily given a value of 100%; likewise the minimum activity in the absence of the stimulant (no LPS) was assigned a value of 0% Inhibition of the amount of mIL-6 cytokine released in the drug treated wells was calculated relative to the maximum activation in the DMSO+LPS treated control wells (i.e., % inhibition=100−(drug+LPS treated)/(DMSO+LPS treated)). Dose response curves were used to determine the effective concentration to inhibit 50% of the mIL-6 cytokine released (IC50) by means of a SigmaPlot macro which fits a sigmoidal dose-response curve to the (log 10) μM concentration versus % inhibition. […] This technique yields an objective value for the IC50 provided that 50% inhibition was approached at the concentrations tested.

Test [3] has as its target T2, RelB (Homo sapiens, UniProt Q01201).
T2 sequence (Q01201 1-579): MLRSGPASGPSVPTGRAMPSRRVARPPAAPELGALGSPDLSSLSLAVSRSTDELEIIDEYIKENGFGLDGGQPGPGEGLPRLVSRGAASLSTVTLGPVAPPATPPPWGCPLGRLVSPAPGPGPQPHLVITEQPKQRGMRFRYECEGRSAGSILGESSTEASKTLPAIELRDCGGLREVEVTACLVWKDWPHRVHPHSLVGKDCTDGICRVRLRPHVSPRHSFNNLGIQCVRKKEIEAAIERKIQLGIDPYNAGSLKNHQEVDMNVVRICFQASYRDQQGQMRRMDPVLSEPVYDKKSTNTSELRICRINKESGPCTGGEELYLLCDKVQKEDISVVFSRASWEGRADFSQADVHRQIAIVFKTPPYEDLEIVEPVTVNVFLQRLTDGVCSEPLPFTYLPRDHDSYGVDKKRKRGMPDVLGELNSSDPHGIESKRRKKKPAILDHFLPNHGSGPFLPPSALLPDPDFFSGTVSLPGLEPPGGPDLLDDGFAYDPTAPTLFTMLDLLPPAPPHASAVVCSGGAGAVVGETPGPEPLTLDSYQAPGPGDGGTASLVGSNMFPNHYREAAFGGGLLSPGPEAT
Kind of test: TransAM NF-κB Family DNA Binding ELISA, RelB. On the procedure:
as §1
Background: An ELISA detects its analyte on a solid surface through an enzyme-linked reagent.

T1 sequence (Q04206 whole entry): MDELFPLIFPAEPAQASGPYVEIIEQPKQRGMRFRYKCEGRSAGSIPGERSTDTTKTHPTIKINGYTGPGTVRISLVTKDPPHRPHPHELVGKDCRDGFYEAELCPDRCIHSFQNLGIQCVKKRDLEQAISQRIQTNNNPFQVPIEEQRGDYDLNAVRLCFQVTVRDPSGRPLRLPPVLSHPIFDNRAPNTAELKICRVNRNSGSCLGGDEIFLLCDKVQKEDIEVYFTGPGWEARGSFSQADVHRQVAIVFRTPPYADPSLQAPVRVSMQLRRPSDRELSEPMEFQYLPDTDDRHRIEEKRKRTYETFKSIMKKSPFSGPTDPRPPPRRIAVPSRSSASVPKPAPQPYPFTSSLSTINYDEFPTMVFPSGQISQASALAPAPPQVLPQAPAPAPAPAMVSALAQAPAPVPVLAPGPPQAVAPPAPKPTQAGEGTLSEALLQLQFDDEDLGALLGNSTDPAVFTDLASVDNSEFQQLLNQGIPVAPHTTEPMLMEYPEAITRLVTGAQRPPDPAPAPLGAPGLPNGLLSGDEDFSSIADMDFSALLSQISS

For the molecule `CC(C)CC(=O)Oc1ccccc1C(=O)NC1=CC(=O)C2OC2C1O` (racemic) [Example 1, (±)-2-(2-hydroxy-5-oxo-7-oxabicyclo[4.1.0]hept-3-en-3-ylcarbamoyl)phenyl 3-methylbutanoate], the IC50 (usually the concentration at which inhibition is half-maximal) in test [1] was found to be 214000 nM. The EC50 (in general, the midpoint of the concentration-response curve) in test [2] amounted to 500 nM. For the same molecule, the inhibition (commonly the change of the read-out against control, counted positive when it falls) at 5 µM in test [3] amounted to 0%.
`CC(C)OC(=O)Oc1ccccc1C(=O)NC1=CC(=O)C2OC2C1OC(=O)OC(C)C` (racemic) [Example 2, (±)-3-(2-isopropoxycarbonyloxy-benzoylamino)-5-oxo-7-oxa-bicyclo[4.1.0]hept-3-en-2-yl ester isopropyl ester]: the IC50 in test [1] is greater than 376000 nM. In addition, the concentration for a half-maximal effect (EC50) in test [2] stood at 1300 nM. In test [3], this molecule displayed an inhibition at 5 µM of 2%.
For `O=C(CC1CCCCC1)Oc1ccccc1C(=O)NC1=CC(=O)C2OC2C1O` (racemic) [Example 3, (±)-2-(2-hydroxy-5-oxo-7-oxabicyclo[4.1.0]hept-3-en-3-ylcarbamoyl)phenyl 2-cyclohexylacetate], in that order: 93000 nM, 720 nM and 3%.
For `CCCC(C)C(=O)Oc1ccccc1C(=O)NC1=CC(=O)C2OC2C1O` (racemic) [Example 4, (±)-2-(2-hydroxy-5-oxo-7-oxabicyclo[4.1.0]hept-3-en-3-ylcarbamoyl)phenyl 2-methylpentanoate], in that order: 149000 nM, 450 nM and 5%.
For `CCCCC(CC)C(=O)Oc1ccccc1C(=O)NC1=CC(=O)C2OC2C1O` (racemic) [Example 5, (±)-2-(2-hydroxy-5-oxo-7-oxabicyclo[4.1.0]hept-3-en-3-ylcarbamoyl)phenyl 2-ethylhexanoate], in that order: greater than 430000 nM, 440 nM and 5%.
As to `CC(C)(C)CC(=O)Oc1ccccc1C(=O)NC1=CC(=O)C2OC2C1O` (racemic) [Example 6, (±)-2-(2-hydroxy-5-oxo-7-oxabicyclo[4.1.0]hept-3-en-3-ylcarbamoyl)phenyl 3,3-dimethylbutanoate], the IC50 in test [1] was found to be 67000 nM. Moreover, the EC50 in test [2] is 350 nM. Moreover, in test [3], the inhibition at 5 µM worked out at 3%.
As to `CC(C)OC(=O)Oc1ccccc1C(=O)NC1=CC(=O)C2OC2C1O` (racemic) [Example 7, (±)-2-(2-hydroxy-5-oxo-7-oxabicyclo[4.1.0]hept-3-en-3-ylcarbamoyl)phenyl isopropyl carbonate], the IC50 in test [1] is greater than 480000 nM. Further, the EC50 in test [2] worked out at 1700 nM. The same molecule displayed an inhibition at 5 µM in test [3] of 0%.
For `CC(C)OC(=O)OC1C(NC(=O)c2ccccc2O)=CC(=O)C2OC21` (racemic) [Example 8], in that order: 336000 nM, 1500 nM and 2%.
